Here are results for 30 compounds from US7491819B1 (priority 2004, dated 2009).

The target of this assay is T1, HIV-integrase (Human immunodeficiency virus type 1 group M subtype B, UniProt P12497).
T1 construct: Recombinant integrase (0.26 ng) was incubated with the beads
Kind of assay: HIV-Integrase Inhibition Activity (SPA bead strand-transfer assay). The format is biochemical. Conditions: Table 1; read-out: Activity (HIV-integrase inhibition, IC50 class). The gist of the method: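 Biotin-labelled substrate DNA (5 pmole) bound to streptavidin SPA beads, preloaded with recombinant integrase (0.26 ng) for 90 min at 37° C, then washed. Inhibitors and 0.1 fmol P33-labelled target DNA added; reaction stopped with 10 mM EDTA. Integration read as scintillation CPM.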

On to `CCC1(CC)OCCn2c1nc(C(=O)NCc1ccc(F)cc1S(C)(=O)=O)c(O)c2=O` [Example 203, Pyrimido[2,1-c][1,4]oxazine-2-carboxamide, 9,9-diethyl-N-[[4-fluoro-2-(methylsulfonyl)phenyl]methyl]-4,6,7,9-tetrahydro-3-hydroxy-4-oxo-], for which the IC50 – broadly, the concentration that inhibits the measured activity by half – lay in the range of 2 to 100 nM.

Turning to `CN(C)S(=O)(=O)c1cc(F)ccc1CNC(=O)c1nc2n(c(=O)c1O)CCCOC2(C)C` [Example 204, 6H-Pyrimido[2,1-c][1,4]oxazepine-2-carboxamide, N-[[2-[(dimethylamino)sulfonyl]-4-fluorophenyl]methyl]-4,7,8,10-tetrahydro-3-hydroxy-10,10-dimethyl-4-oxo-], the IC50 lay within 2 to 100 nM.

Consider `CCC1(CC)OCCn2c1nc(C(=O)NCc1ccc(F)cc1S(=O)(=O)N(C)C)c(O)c2=O` [Example 205, Pyrimido[2,1-c][1,4]oxazine-2-carboxamide, N-[[2-[(dimethylamino)sulfonyl]-4-fluorophenyl]methyl]-9,9-diethyl-4,6,7,9-tetrahydro-3-hydroxy-4-oxo-], for which the IC50 was 2 to 100 nM.

Turning to `CC1(C)OCCCn2c1nc(C(=O)NCc1ccccc1N1CCCCS1(=O)=O)c(O)c2=O` [Example 206, 6H-pyrimido[2,1-c][1,4]oxazepine-2-carboxamide, 4,7,8,10-tetrahydro-3-hydroxy-10,10-dimethyl-4-oxo-N-[[2-(tetrahydro-1,1-dioxido-2H-1,2-thiazin-2-yl)phenyl]methyl]-], the IC50 lay in the range of 2 to 100 nM.

Turning to `CCC1(CC)OCCn2c1nc(C(=O)NCc1ccccc1N1CCCCS1(=O)=O)c(O)c2=O` [Example 207, Pyrimido[2,1-c][1,4]oxazine-2-carboxamide, 4,6,7,9-tetrahydro-3-hydroxy-9,9-diethyl-4-oxo-N-[[2-(tetrahydro-1,1-dioxido-2H-1,2-thiazin-2-yl)phenyl]methyl]], the IC50 lay in the range of 2 to 100 nM.

For `CSCCC1OCCn2c1nc(C(=O)NCc1ccc(F)cc1)c(O)c2=O` (stereo not drawn) [Example 208, Pyrimido[2,1-c][1,4]oxazine-2-carboxamide, N-[(4-fluorophenyl)methyl]-4,6,7,9-tetrahydro-3-hydroxy-9-[2-(methylthio)ethyl]-4-oxo-], the IC50 is 2 to 100 nM.

With `CS(=O)(=O)CCC1OCCn2c1nc(C(=O)NCc1ccc(F)cc1)c(O)c2=O` (stereo not drawn) [Example 209, Pyrimido[2,1-c][1,4]oxazine-2-carboxamide, N-[(4-fluorophenyl)methyl]-4,6,7,9-tetrahydro-3-hydroxy-9-[2-(methylsulfonyl)ethyl]-4-oxo-], the IC50 lay within 2 to 100 nM.

As to `Cc1cc(-c2cc(F)ccc2CNC(=O)c2nc3n(c(=O)c2O)CCOC3(C)C)on1` [Example 210, Pyrimido[2,1-c][1,4]oxazine-2-carboxamide, N-[[4-fluoro-2-(3-methyl-5-isoxazolyl)phenyl]methyl]-4,6,7,9-tetrahydro-3-hydroxy-9,9-dimethyl-4-oxo-], the IC50 was 2 to 100 nM.

Consider `C/C(N)=C/C(=O)c1cc(F)ccc1CNC(=O)c1nc2n(c(=O)c1O)CCOC2(C)C` [Example 211, Pyrimido[2,1-c][1,4]oxazine-2-carboxamide, N-[[2-[(2Z)-3-amino-1-oxo-2-butenyl]-4-fluorophenyl]methyl]-4,6,7,9-tetrahydro-3-hydroxy-9,9-dimethyl-4-oxo-], for which the IC50 fell in the range of 2 to 100 nM.

Regarding `CC1(C)OCCn2c1nc(C(=O)NCc1ccc(F)cc1-c1cc(Br)no1)c(O)c2=O` [Example 212, Pyrimido[2,1-c][1,4]oxazine-2-carboxamide, N-[[2-(3-bromo-5-isoxazolyl)-4-fluorophenyl]methyl]-4,6,7,9-tetrahydro-3-hydroxy-9,9-dimethyl-4-oxo-], the IC50 lay within 2 to 100 nM.

Turning to `CON(Cc1ccc(F)cc1)C(=O)c1nc2n(c(=O)c1O)CCOC2(C)C` [Example 214, Pyrimido[2,1-c][1,4]oxazine-2-carboxamide, N-[(4-fluorophenyl)methyl]-4,6,7,9-tetrahydro-3-hydroxy-N-methoxy-9,9-dimethyl-4-oxo-], the IC50 was over 1000 nM.

For `CC1(C)OCCn2c1nc(C(=O)NCc1ccccc1N1CCCCS1(=O)=O)c(O)c2=O` [Example 215, Pyrimido[2,1-c][1,4]oxazine-2-carboxamide, 4,6,7,9-tetrahydro-3-hydroxy-9,9-dimethyl-4-oxo-N-[[2-(tetrahydro-1,1-dioxido-2H-1,2-thiazin-2-yl)phenyl]methyl]-], the IC50 is 2 to 100 nM.

As to `CC1(C)OCCn2c1nc(C(=O)NCc1ccccc1-n1cncn1)c(O)c2=O` [Example 216, Pyrimido[2,1-c][1,4]oxazine-2-carboxamide, 4,6,7,9-tetrahydro-3-hydroxy-9,9-dimethyl-4-oxo-N-[[2-(1H-1,2,4-triazol-1-yl)phenyl]methyl]-], the IC50 is 2 to 100 nM.

Take `CC1(C)OCCn2c1nc(C(=O)NCCCc1ccccc1)c(O)c2=O` [Example 217, Pyrimido[2,1-c][1,4]oxazine-2-carboxamide, 4,6,7,9-tetrahydro-3-hydroxy-9,9-dimethyl-4-oxo-N-(3-phenylpropyl)-]: the IC50 fell in the range of 2 to 100 nM.

`CC1(C)OCCn2c1nc(C(=O)NCc1ccc3c(c1)OCO3)c(O)c2=O` [Example 218, Pyrimido[2,1-c][1,4]oxazine-2-carboxamide, N-(1,3-benzodioxol-5-ylmethyl)-4,6,7,9-tetrahydro-3-hydroxy-9,9-dimethyl-4-oxo-]: the IC50 is 2 to 100 nM.

For `CC1(C)OCCn2c1nc(C(=O)NCc1ccccc1)c(O)c2=O` [Example 219, Pyrimido[2,1-c][1,4]oxazine-2-carboxamide, 4,6,7,9-tetrahydro-3-hydroxy-9,9-dimethyl-4-oxo-N-(phenylmethyl)-], the IC50 lay within 2 to 100 nM.

As for `CC1(C)OCCn2c1nc(C(=O)NCc1cccc(F)c1)c(O)c2=O` [Example 220, Pyrimido[2,1-c][1,4]oxazine-2-carboxamide, N-[(3-fluorophenyl)methyl]-4,6,7,9-tetrahydro-3-hydroxy-9,9-dimethyl-4-oxo-], the IC50 was 2 to 100 nM.

`CC1(C)OCCn2c1nc(C(=O)NCc1ccc(Cl)c(Cl)c1)c(O)c2=O` [Example 221, Pyrimido[2,1-c][1,4]oxazine-2-carboxamide, N-[(3,4-dichlorophenyl)methyl]-4,6,7,9-tetrahydro-3-hydroxy-9,9-dimethyl-4-oxo-]: the IC50 was 2 to 100 nM.

For the compound `COc1cccc(CNC(=O)c2nc3n(c(=O)c2O)CCOC3(C)C)c1` [Example 222, Pyrimido[2,1-c][1,4]oxazine-2-carboxamide, 4,6,7,9-tetrahydro-3-hydroxy-N-[(3-methoxyphenyl)methyl]-9,9-dimethyl-4-oxo-], the IC50 is 2 to 100 nM.

In the case of `Cc1cccc(CNC(=O)c2nc3n(c(=O)c2O)CCOC3(C)C)c1` [Example 223, Pyrimido[2,1-c][1,4]oxazine-2-carboxamide, 4,6,7,9-tetrahydro-3-hydroxy-9,9-dimethyl-N-[(3-methylphenyl)methyl]-4-oxo-], the IC50 lay within 2 to 100 nM.

In the case of `CC1(C)OCCn2c1nc(C(=O)NCc1cc(F)ccc1F)c(O)c2=O` [Example 224, Pyrimido[2,1-c][1,4]oxazine-2-carboxamide, N-[(2,5-difluorophenyl)methyl]-4,6,7,9-tetrahydro-3-hydroxy-9,9-dimethyl-4-oxo-], the IC50 lay in the range of 2 to 100 nM.

For `COc1cc(CNC(=O)c2nc3n(c(=O)c2O)CCOC3(C)C)ccc1O` [Example 225, Pyrimido[2,1-c][1,4]oxazine-2-carboxamide, 4,6,7,9-tetrahydro-3-hydroxy-N-[(4-hydroxy-3-methoxyphenyl)methyl]-9,9-dimethyl-4-oxo-], the IC50 lay within 2 to 100 nM.

As for `CC1(C)OCCn2c1nc(C(=O)NCc1cccc(Cl)c1)c(O)c2=O` [Example 226, Pyrimido[2,1-c][1,4]oxazine-2-carboxamide, N-[(3-chlorophenyl)methyl]-4,6,7,9-tetrahydro-3-hydroxy-9,9-dimethyl-4-oxo-], the IC50 lay within 2 to 100 nM.

As for `CC1(C)OCCn2c1nc(C(=O)NCc1cccc(Cl)c1Cl)c(O)c2=O` [Example 227, Pyrimido[2,1-c][1,4]oxazine-2-carboxamide, N-[(2,3-dichlorophenyl)methyl]-4,6,7,9-tetrahydro-3-hydroxy-9,9-dimethyl-4-oxo-], the IC50 is 2 to 100 nM.

Take `CC1(C)OCCn2c1nc(C(=O)NCc1cc(Cl)ccc1Cl)c(O)c2=O` [Example 228, Pyrimido[2,1-c][1,4]oxazine-2-carboxamide, N-[(2,5-dichlorophenyl)methyl]-4,6,7,9-tetrahydro-3-hydroxy-9,9-dimethyl-4-oxo-]: the IC50 fell in the range of 2 to 100 nM.

On to `COc1cccc(CNC(=O)c2nc3n(c(=O)c2O)CCOC3(C)C)c1OC` [Example 229, Pyrimido[2,1-c][1,4]oxazine-2-carboxamide, N-[(2,3-dimethoxyphenyl)methyl]-4,6,7,9-tetrahydro-3-hydroxy-9,9-dimethyl-4-oxo-], for which the IC50 lay in the range of 2 to 100 nM.

Take `CC1(C)OCCn2c1nc(C(=O)NCc1ccc3c(c1)OCCO3)c(O)c2=O` [Example 230, Pyrimido[2,1-c][1,4]oxazine-2-carboxamide, N-[(2,3-dihydro-1,4-benzodioxin-6-yl)methyl]-4,6,7,9-tetrahydro-3-hydroxy-9,9-dimethyl-4-oxo-]: the IC50 is 2 to 100 nM.

Regarding `Cc1ccc(CNC(=O)c2nc3n(c(=O)c2O)CCOC3(C)C)cc1Cl` [Example 231, Pyrimido[2,1-c][1,4]oxazine-2-carboxamide, N-[(3-chloro-4-methylphenyl)methyl]-4,6,7,9-tetrahydro-3-hydroxy-9,9-dimethyl-4-oxo-], the IC50 lay in the range of 2 to 100 nM.

For `COc1ccc(CNC(=O)c2nc3n(c(=O)c2O)CCOC3(C)C)c(OC)c1` [Example 232, Pyrimido[2,1-c][1,4]oxazine-2-carboxamide, N-[(2,4-dimethoxyphenyl)methyl]-4,6,7,9-tetrahydro-3-hydroxy-9,9-dimethyl-4-oxo-], the IC50 was in the range of 2 to 100 nM.

Take `Cc1cccc(CNC(=O)c2nc3n(c(=O)c2O)CCOC3(C)C)c1C` [Example 233, Pyrimido[2,1-c][1,4]oxazine-2-carboxamide, N-[(2,3-dimethylphenyl)methyl]-4,6,7,9-tetrahydro-3-hydroxy-9,9-dimethyl-4-oxo-]: the IC50 was 2 to 100 nM.
